Test results taken from patent publication US9062030B2, “Pyrazole azetidine derivatives as sphingosine 1-phosphate (S1P) receptor modulators” (Allergan, Inc., priority 2013, dated 2015).

Target: T1, human S1P1 receptor (Homo sapiens, UniProt P21453)
T1 construct: expressed in transfected cells; membranes used
Assay: GTP γ35S binding assay for S1P1 activity
Assay type: biochemical
Settings: membranes of cells stably expressing the S1P1 receptor, agonist activity potency
Method: Compounds were synthesized and tested for S1P1 activity using the GTP γ^35S binding assay. These compounds may be assessed for their ability to activate or block activation of the human S1P1 receptor in cells stably expressing the S1P1 receptor.
GTP γ^35S binding was measured in the medium containing (mM) HEPES 25, pH 7.4, MgCl2 10, NaCl 100, dithiothreitol 0.5, digitonin 0.003%, 0.2 nM GTP γ^35S, and 5 μg membrane protein in a volume of 150 μl. Test compounds were included in the concentration range from 0.08 to 5,000 nM unless indicated otherwise. Membranes were incubated with 100 μM 5′-adenylylimidodiphosphate for 30 min, and subsequently with 10 μM GDP for 10 min on ice. Drug solutions and membrane were mixed, and then reactions were initiated by adding GTP γ^35S and continued for 30 min at 25° C. Reaction mixtures were filtered over Whatman GF/B filters under vacuum, and washed three times with 3 mL of ice-cold buffer (HEPES 25, pH 7.4, MgCl2 10 and NaCl 100). Filters were dried and mixed with scintillant, and counted for ^35S activity using a β-counter. Agonist-induced GTP γ^35S binding was obtained by subtracting that in the absence of agonist. Binding data were analyzed using a non-linear regression method. In case of antagonist assay, the reaction mixture contained 10 nM S1P in the presence of test antagonist at concentrations ranging from 0.08 to 5000 nM.

T1 sequence (P21453 whole entry): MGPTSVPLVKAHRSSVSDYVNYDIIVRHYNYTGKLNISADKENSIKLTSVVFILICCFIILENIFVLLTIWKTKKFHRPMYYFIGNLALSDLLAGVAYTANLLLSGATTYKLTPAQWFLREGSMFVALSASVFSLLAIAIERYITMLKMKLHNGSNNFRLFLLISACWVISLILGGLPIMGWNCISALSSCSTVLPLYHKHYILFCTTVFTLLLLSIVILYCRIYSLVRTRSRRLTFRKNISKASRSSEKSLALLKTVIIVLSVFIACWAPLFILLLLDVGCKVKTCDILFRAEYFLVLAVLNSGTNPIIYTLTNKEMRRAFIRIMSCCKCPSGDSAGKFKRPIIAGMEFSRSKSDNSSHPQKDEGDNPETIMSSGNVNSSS

EC50: 450 nM
Compound: Cc1nn(C(=O)CCc2ccc(CN3CC(C(=O)O)C3)cc2)c2c1C1C(C2)C1(C)C (stereo not shown) [Compound 1, 1-{4-[3-oxo-3-(3,4,4-trimethyl-3b,4,4a,5-tetrahydro-1H-cyclopropa [3,4]cyclopenta[1,2-c]pyrazol-1-yl)propyl]benzyl}azetidine-3-carboxylic acid]
